In US9221822B2, “Thiazolopyrimidine modulators as immunosuppressive agents” (Katholieke Universiteit Leuven, K.U.Leuven R&D, priority 2009, dated 2015):

system: Human peripheral blood mononuclear cells (PBMCs) as Responder cells, RPMI 1788 Stimulator cells; experiment: Mixed Lymphocyte Reaction (MLR) test; type: cell-based; conditions: Homo sapiens, RPMI-1788, lowest concentration giving 50% inhibition of the MLR; 6 days coculture, 3H-thymidine incorporation
Protocol: Human peripheral blood mononuclear cells (PBMCs) were isolated from buffy coats, obtained from healthy blood donors by Ficoll (Lymphoprep, Axis-Shield PoC AS, Oslo, Norway) density-gradient centrifugation. The cells at the Ficoll-plasma interface were washed three times and used as “Responder” cells. RPMI 1788 (ATCC, N^o CCL-156) cells were treated with mitomycin C (Kyowa, Nycomed, Brussel, Belgium) and used as “Stimulator” cells. Responder cells (0.12×10^6), Stimulator cells (0.045×10^6) and compounds (in different concentrations) were cocultured for 6 days in RPMI 1640 medium (BioWhittaker, Lonza, Belgium) supplemented with 10% fetal calf serum, 100 U/ml Geneticin (Gibco, LifeTechnologies, UK). Cells were cultured in triplicate in flat-bottomed 96-well microtiter tissue culture plates (TTP, Switzerland). After 5 days, cells were pulsed with 1 μCi of methyl-^3H thymidine (MP Biomedicals, USA), harvested 18 h later on glass filter paper and counted. Proliferation values were expressed as counts per minute (cpm), and converted to % inhibition with respect to a blank MLR test (identical but without added compound). […]

Row | Structure (SMILES) | IC50 [nM]
1 | O=C(COc1ccc(Cl)cc1)N1CCN(c2nc(-c3ccccc3)nc3sc(-c4ccc(F)cc4)cc23)CC1 [Example 352, 2-(4-chlorophenoxy)-1-(4-(6-(4-fluorophenyl)-2-phenylthieno[2,3-d]pyrimidin-4-yl)piperazin-1-yl)ethanone] | > 10000
2 | Nc1nc(N2CCN(S(=O)(=O)Cc3ccccc3)CC2)c2nc(CCc3ccc(F)cc3)sc2n1 [Example 137, 5-amino-2-[2-(4-fluorophenyl)ethyl]-7-[4-phenylmethanesulfonylpiperazin-1-yl]-thiazolo[5,4-d]pyrimidine] | 6680
3 | C[S+]([O-])c1nc2c(N3CCN(C(=O)COc4ccc(Cl)cc4)CC3)nc(N)nc2s1 (stereo not drawn) [Example 126, 5-amino-7-[4-(4-chlorophenoxyacetyl)piperazin-1-yl]-2-methylsulfinyl-thiazolo[5,4-d]pyrimidine] | 2650
4 | Nc1nc(N2CCN(C(=O)COc3ccc(Cl)cc3)CC2)c2nc(Nc3ccc(F)cc3)sc2n1 [Example 127, 5-amino-7-[4-(4-chlorophenoxyacetyl)piperazin-1-yl]-2-(4-fluorophenylamino)-thiazolo[5,4-d]pyrimidine] | 6770
5 | CCCCCc1nc2c(N3CCN(C(=O)COc4ccc(OC)cc4)CC3)nc(N)nc2s1 [Example 296, 1-(4-(5-amino-2-pentylthiazolo[5,4-d]pyrimidin-7-yl)piperazin-1-yl)-2-(4-methoxyphenoxy)ethanone] | 7590
6 | Nc1nc(N2CCN(c3nccs3)CC2)c2nc(CCc3ccc(F)cc3)sc2n1 [Example 140, 5-amino-2-[2-(4-fluorophenyl)ethyl]-7-(4-thiazol-2-yl-piperazine-1-yl)-thiazolo[5,4-d]pyrimidine] | 8820
7 | Cc1cccc(NC(=O)N2CCCN(c3nc(N)nc4[nH]c(-c5ccc(F)cc5)nc34)CC2)c1 [Example 422, 4-(2-amino-8-(4-fluorophenyl)-9H-purin-6-yl)-N-m-tolyl-1,4-diazepane-1-carboxamide] | 1180
8 | Nc1nc(N2CCN(C(=O)COc3ccc(Cl)cc3)CC2)c2nc(SCc3ccccc3)[nH]c2n1 [Example 426, 1-(4-(2-amino-8-(benzylthio)-9H-purin-6-yl)piperazin-1-yl)-2-(4-chlorophenoxy)ethanone] | 3280
9 | Nc1nc(N2CCCN(C(=O)COc3ccc(Cl)cc3)CC2)c2cc(-c3ccccc3)sc2n1 [Example 334, 1-(4-(2-amino-6-phenylthieno[2,3-d]pyrimidin-4-yl)-1,4-diazepan-1-yl)-2-(4-chlorophenoxy)ethanone] | 8830
10 | Nc1nc(N2CC[C@@H](NC(=O)c3ccc(Cl)cc3)C2)c2cc(-c3ccc(F)cc3)sc2n1 [Example 341, (R)—N-(1-(2-amino-6-(4-fluorophenyl)thieno[2,3-d]pyrimidin-4-yl)pyrrolidin-3-yl)-4-chlorobenzamide] | 7230
11 | COc1ccc(OCC(=O)N2CCN(c3nc(N)nc4sc(-c5ccc(F)cc5)nc34)CC2)cc1 [Example 234, 1-(4-(5-amino-2-(4-fluorophenyl)thiazolo[5,4-d]pyrimidin-7-yl)piperazin-1-yl)-2-(4-methoxyphenoxy)ethanone] | 37
12 | Nc1nc(N2CCN(C(=O)Nc3ccc(Br)cc3)CC2)c2nc(-c3ccc(F)cc3)sc2n1 [Example 218, 4-(5-amino-2-(4-fluorophenyl)thiazolo[5,4-d]pyrimidin-7-yl)-N-(4-bromophenyl)piperazine-1-carboxamide] | 177
13 | CCCCCN1CCN(c2nc(N)nc3sc(-c4ccc(F)cc4)nc23)CC1 [Example 37, 2-(4-fluorophenyl)-7-(4-pentylpiperazin-1-yl)thiazolo[5,4-d]pyrimidin-5-amine] | > 10000
14 | N#Cc1ccc(NC(=O)N2CCN(c3nc(N)nc4sc(Cc5ccc(F)cc5)nc34)CC2)cc1 [Example 232, 4-(5-amino-2-(4-fluorobenzyl)thiazolo[5,4-d]pyrimidin-7-yl)-N-(4-cyanophenyl)piperazine-1-carboxamide] | 860
15 | CCCCCc1nc2c(N3CCN(C(=O)COc4ccc(Cl)cc4)CC3)nc(N)nc2o1 [Example 188, 5-amino-7-[4-(4-chlorophenoxyacetyl)piperazin-1-yl]-2-pentyloxazolo[5,4-d]pyrimidine] | 4430
16 | Nc1nc(N2CCN(C(=O)Cc3ccc(Cl)cc3)CC2)c2nc(CCc3ccc(F)cc3)sc2n1 [Example 132, 5-amino-2-[2-(4-fluorophenyl)ethyl]-7-(4-[2-(4-chlorophenyl)acetyl]piperazin-1-yl)-thiazolo[5,4-d]pyrimidine] | 440
17 | COc1ccc(CNC(=O)N2CCN(c3nc(N)nc4sc(-c5cccnc5)nc34)CC2)cc1 [Example 278, 4-(5-amino-2-(pyridin-3-yl)thiazolo[5,4-d]pyrimidin-7-yl)-N-(4-methoxybenzyl)piperazine-1-carboxamide] | 80
18 | Nc1nc(N2CCN(C(=O)COc3ccc(Cl)cc3)CC2)c2nc(-c3ccc(Cl)c(Cl)c3)sc2n1 [Example 116, 5-amino-7-[4-(4-chlorophenoxyacetyl)piperazin-1-yl]-2-(3,4-dichlorophenyl)thiazolo[5,4-d]pyrimidine] | 5290
19 | CC(C)(Oc1ccc(Cl)cc1)C(=O)N1CCN(c2nc(N)nc3sc(-c4ccc(F)cc4)nc23)CC1 [Example 237, 1-(4-(5-amino-2-(4-fluorophenyl)thiazolo[5,4-d]pyrimidin-7-yl)piperazin-1-yl)-2-(4-chlorophenoxy)-2-methylpropan-1-one] | > 10000
20 | Nc1nc(N[C@H]2CCN(C(=O)COc3ccc(Cl)cc3)C2)c2nc(CCc3ccc(F)cc3)sc2n1 [Example 147, 5-amino-2-[2-(4-fluorophenyl)ethyl]-7-(1-(4-chlorophenoxyacetyl)pyrrolidin-3-(S)-ylamino)-thiazolo[5,4-d]pyrimidine] | 4520
21 | CCCCc1nc(N2CCN(C(=O)COc3ccc(Cl)cc3)CC2)c2cc(-c3ccc(F)cc3)sc2n1 [Example 313, 1-(4-(2-butyl-6-(4-fluorophenyl)thieno[2,3-d]pyrimidin-4-yl)piperazin-1-yl)-2-(4-chlorophenoxy)ethanone] | 1330
22 | N#Cc1ccc(NC(=O)N2CCN(c3nc(N)nc4sc(-c5ccc(F)cc5)nc34)CC2)cc1 [Example 216, 4-(5-amino-2-(4-fluorophenyl)thiazolo[5,4-d]pyrimidin-7-yl)-N-(4-cyanophenyl)piperazine-1-carboxamide] | 19
23 | Nc1nc(N2CCN(C(=O)COc3ccc(Cl)cc3)CC2)c2nc(CCCCc3ccc(F)cc3)sc2n1 [Example 292, 1-(4-(5-amino-2-(4-(4-fluorophenyl)butyl)thiazolo[5,4-d]pyrimidin-7-yl)piperazin-1-yl)-2-(4-chlorophenoxy)ethanone] | 920
24 | Nc1nc(N2CCN(C(=O)CCc3ccccc3)CC2)c2nc(CCc3ccc(F)cc3)sc2n1 [Example 136, 5-amino-2-[2-(4-fluorophenyl)ethyl]-7-[4-(3-phenylpropionyl)piperazin-1-yl]-thiazolo[5,4-d]pyrimidine] | > 10000
25 | COc1ccccc1NC(=O)N1CCN(c2nc(N)nc3sc(-c4ccc(F)cc4)nc23)CC1 [Example 219, 4-(5-amino-2-(4-fluorophenyl)thiazolo[5,4-d]pyrimidin-7-yl)-N-(2-methoxyphenyl)piperazine-1-carboxamide] | 323
26 | Cc1nc2c(N3CCN(C(=O)COc4ccc(Cl)cc4)CC3)nc(N)nc2[nH]1 [Example 400, 1-(4-(2-amino-8-methyl-9H-purin-6-yl)piperazin-1-yl)-2-(4-chlorophenoxy)ethanone] | 450
27 | Nc1nc(N2CCN(C(=O)COc3ccc(F)cc3)CC2)c2nc(-c3cccnc3)sc2n1 [Example 272, 1-(4-(5-amino-2-(pyridin-3-yl)thiazolo[5,4-d]pyrimidin-7-yl)piperazin-1-yl)-2-(4-fluorophenoxy)ethanone] | 12
28 | Nc1nc(N2CCN(C(=O)COc3ccc(Cl)cc3)CC2)c2nc(CCc3ccc(F)cc3)sc2n1 [Example 49, 1-(4-(5-amino-2-(4-fluorophenethyl)-thiazolo[5,4-d]pyrimidin-7-yl)piperazin-1-yl)-2-(4-chlorophenoxy)ethanone] | 4400
29 | Nc1nc(N2CC[C@@H](NC(=O)COc3ccc(Cl)cc3)C2)c2nc(CCc3ccc(F)cc3)sc2n1 [Example 143, 5-amino-2-[2-(4-fluorophenyl)ethyl]-7-(3-(R)-[2-(4-chlorophenoxy)-acetylamino]pyrrolidin-1-yl)-thiazolo[5,4-d]pyrimidine] | > 10000
30 | Nc1nc(N2CCN(C(=O)COc3ccc(Cl)cc3)CC2)c2nc(C3CCCCC3)sc2n1 [Example 120, 5-amino-7-[4-(4-chlorophenoxyacetyl)piperazin-1-yl]-2-cyclohexylthiazolo[5,4-d]pyrimidine] | 830

same assay, conditions: lowest concentration giving 50% inhibition of the MLR; 6 days coculture, 3H-thymidine incorporation

Row | Structure (SMILES) | IC50 [nM]
31 | Nc1nc(N2CCN(c3ccncc3)CC2)c2nc(-c3ccc(F)cc3)[nH]c2n1 [Example 419] | > 10000
32 | COc1ccc(OCC(=O)N2CCN(c3nc(N)nc4sc(-c5ccc(Cl)cc5)nc34)CC2)cc1 [Example 270, 1-(4-(5-amino-2-(4-chlorophenyl)thiazolo[5,4-d]pyrimidin-7-yl)piperazin-1-yl)-2-(4-methoxyphenoxy)ethanone] | 150
33 | Nc1nc(N2CCN(C(=O)COc3ccc(Br)cc3)CC2)c2nc(-c3ccc(F)cc3)sc2n1 [Example 128, 5-amino-2-(4-fluorophenyl)-7-(4-[2-(4-bromophenoxy)acetyl]-piperazin-1-yl)-thiazolo[5,4-d]pyrimidine] | 380
